We go through 26 compounds from US20250346575A1, “ISOINDOLINONE DERIVATIVE HAVING GLUTARIMIDE MOTHER NUCLEUS, AND USE THEREOF” (KOREA RESEARCH INSTITUTE OF CHEMICAL TECHNOLOGY, priority 2021, published 2025).

This data set relates to NCI-H1155 (lung cancer cells). As to the kind of experiment: CytoX cell viability assay, NCI-H1155. It counts as cell-based. The note with it: for viability at 0.01 µM / viability at 0.5 µM: Homo sapiens, NCI-H1155; for cytotoxic activity against cancer cells, H1155 cells (in words): (6+6) bicyclic heteroaryl compared to (6+5) bicyclic heteroaryl (Compounds 56-58 and 62-70). On the procedure: The survival rate of NCI-H1155 (lung cancer cells) was measured using the CytoX cell viability assay kit (LPS solution, #CYT3000). NCI-H1155 cells were inoculated into 12-well plates. Afterwards, the cells were treated with each compound of the present disclosure and a comparative substance (CC-90009) at concentrations of 10 nM and 500 nM for 72 hours. Then, CytoX solution was added to the cells, incubated for one hour, and the absorbance of each well was read at 450 nm using a microplate reader to calculate the % viability, and the measurements are summarized in Table 2

Consider `O=C1CCC(N2Cc3cc(CNC(=O)C(F)(F)c4ccc(Cl)cc4)ccc3C2=O)C(=O)N1` (stereo not shown) [CC-90009, reference compound], for which the “NCI-H1155 (% viability) at 10 nM” value (10 nM, 72 hours) came to 85.0%. The “NCI-H1155 (% viability) at 500 nM” value (500 nM, 72 hours) worked out at 23.5%.

`O=C1CCC(N2Cc3cc(CNC(=O)c4cc5ccccc5o4)ccc3C2=O)C(=O)N1` (stereo not shown) [Compound 56, N-((2-(2,6-Dioxopiperidin-3-yl)-1-oxoisoindolin-5-yl)methyl)benzofuran-2-carboxamide]: the viability at 0.01 µM (10 nM, 72 hours) worked out at 29.8%. The viability at 0.5 µM (500 nM, 72 hours) stood at 5.94%.

For the compound `COc1ccc2[nH]c(C(=O)NCc3ccc4c(c3)CN(C3CCC(=O)NC3=O)C4=O)cc2c1` (stereo not shown) [Compound 57, N-((2-(2,6-Dioxopiperidin-3-yl)-1-oxoisoindolin-5-yl)methyl)-5-methoxy-1H-indole-2-carboxamide], the viability at 0.01 µM (10 nM, 72 hours) came out at 83.8%. For the same compound, the viability at 0.5 µM (500 nM, 72 hours) stood at 21.2%.

On to `O=C1CCC(N2Cc3cc(CNC(=O)c4cc5ccccc5s4)ccc3C2=O)C(=O)N1` (stereo not shown) [Compound 58, N-((2-(2,6-Dioxopiperidin-3-yl)-1-oxoisoindolin-5-yl)methyl)benzo[b]thiophene-2-carboxamide], for which the viability at 0.01 µM (10 nM, 72 hours) was 4.31%. Moreover, the viability at 0.5 µM (500 nM, 72 hours) turned out to be 2.96%.

With `O=C1CCC(N2Cc3cc(CNC(=O)c4cnc5cc(Cl)ccc5c4O)ccc3C2=O)C(=O)N1` (stereo not shown) [Compound 59, 7-chloro-N-((2-(2,6-dioxopiperidin-3-yl)-1-oxoisoindolin-5-yl)methyl)-4-hydroxyquinoline-3-carboxamide], the “cytotoxic activity against cancer cells, H1155 cells (in words)” value (shortened to “cytotoxic activity against cancer cells”) is given as “less cytotoxic activity”. Moreover, the viability at 0.01 µM (10 nM, 72 hours) stood at 102%. The viability at 0.5 µM (500 nM, 72 hours) was 40.1%.

Consider `O=C1CCC(N2Cc3cc(CNC(=O)c4cc5ccccc5oc4=O)ccc3C2=O)C(=O)N1` (stereo not shown) [Compound 60, N-((2-(2,6-Dioxopiperidin-3-yl)-1-oxoisoindolin-5-yl)methyl)-2-oxo-2H-cromene-3-carboxamide], for which the “cytotoxic activity against cancer cells” value is “less cytotoxic activity”. For the setting “10 nM, 72 hours”, the viability at 0.01 µM is 82%. Further, the viability at 0.5 µM (500 nM, 72 hours) worked out at 22.3%.

Regarding `O=C1CCC(N2Cc3cc(CNC(=O)c4cnnc5ccccc45)ccc3C2=O)C(=O)N1` (stereo not shown) [Compound 61, N-((2-(2,6-Dioxopiperidin-3-yl)-1-oxoisoindolin-5-yl)methyl)cinnoline-4-carboxamide], the “cytotoxic activity against cancer cells” value is “less cytotoxic activity”. For the same compound, the viability at 0.01 µM (10 nM, 72 hours) was found to be 96.8%. Also, the viability at 0.5 µM (500 nM, 72 hours) was 87.2%.

In the case of `Cc1c(C(=O)NCc2ccc3c(c2)CN(C2CCC(=O)NC2=O)C3=O)nn(CC(C)C)c1-c1ccc(Cl)cc1` (stereo not shown) [Compound 62, 5-(4-Chlorophenyl)-N-((2-(2,6-dioxopiperidin-3-yl)-1-oxoisoindolin-5-yl)methyl)-1-isobutyl-4-methyl-1H-pyrazole-3-carboxamide], the viability at 0.01 µM (10 nM, 72 hours) was 18.9%. In addition, the viability at 0.5 µM (500 nM, 72 hours) came out at 9.56%.

For `COc1ccc2sc(C(=O)NCc3ccc4c(c3)CN(C3CCC(=O)NC3=O)C4=O)cc2c1` (stereo not shown) [Compound 65, N-((2-(2,6-Dioxopiperidin-3-yl)-1-oxoisoindolin-5-yl)methyl)-5-methoxybenzo[b]thiophene-2-carboxamide], the viability at 0.01 µM (10 nM, 72 hours) was 31.7%. In addition, the viability at 0.5 µM (500 nM, 72 hours) was 23.4%.

For `Cc1ccc2cc(C(=O)NCc3ccc4c(c3)CN(C3CCC(=O)NC3=O)C4=O)sc2c1` (stereo not shown) [Compound 66, N-((2-(2,6-Dioxopiperidin-3-yl)-1-oxoisoindolin-5-yl)methyl)-6-methylbenzo[b]thiophene-2-carboxamide], the viability at 0.01 µM (10 nM, 72 hours) came out at 32.1%. For the setting “500 nM, 72 hours”, the viability at 0.5 µM was found to be 26.1%.

Consider `Cc1ccc2c(Cl)c(C(=O)NCc3ccc4c(c3)CN(C3CCC(=O)NC3=O)C4=O)sc2c1` (stereo not shown) [Compound 67, 3-Chloro-N-((2-(2,6-dioxopiperidin-3-yl)-1-oxoisoindolin-5-yl)methyl)-6-methylbenzo[b]thiophene-2-carboxamide], for which the viability at 0.01 µM (10 nM, 72 hours) was 26.1%. The viability at 0.5 µM (500 nM, 72 hours) was 24.4%.

Regarding `COc1ccc2c(Cl)c(C(=O)NCc3ccc4c(c3)CN(C3CCC(=O)NC3=O)C4=O)sc2c1` (stereo not shown) [Compound 68, 3-Chloro-N-((2-(2,6-dioxopiperidin-3-yl)-1-oxoisoindolin-5-yl)methyl)-6-methoxybenzo[b]thiophene-2-carboxamide], where the note is “10 nM, 72 hours”, the viability at 0.01 µM stood at 29.9%. Where the note is “500 nM, 72 hours”, the viability at 0.5 µM was determined as 26.4%.

Consider `O=C1CCC(N2Cc3cc(CNC(=O)c4cc5cccc(C(F)(F)F)c5s4)ccc3C2=O)C(=O)N1` (stereo not shown) [Compound 71, N-((2-(2,6-Dioxopiperidin-3-yl)-1-oxoisoindolin-5-yl)methyl)-7-(trifluoromethyl)benzo[b]thiophene-2-carboxamide], for which the viability at 0.01 µM (10 nM, 72 hours) amounted to 24.2%. Besides, the viability at 0.5 µM (500 nM, 72 hours) worked out at 24.4%.

As for `O=C1CCC(N2Cc3cc(CNC(=O)c4sc5cc(C(F)(F)F)ccc5c4Cl)ccc3C2=O)C(=O)N1` (stereo not shown) [Compound 72, 3-chloro-N-((2-(2,6-dioxopiperidin-3-yl)-1-oxoisoindolin-5-yl)methyl)-6-(trifluoromethyl)benzo[b]thiophene-2-carboxamide], the viability at 0.01 µM (10 nM, 72 hours) was found to be 33%. Also, the viability at 0.5 µM (500 nM, 72 hours) turned out to be 24.6%.

Take `O=C1CCC(N2Cc3cc(CNC(=O)c4cc5cc(C(F)(F)F)ccc5s4)ccc3C2=O)C(=O)N1` (stereo not shown) [Compound 73, N-((2-(2,6-Dioxopiperidin-3-yl)-1-oxoisoindolin-5-yl)methyl)-5-(trifluoromethyl)benzo[b]thiophene-2-carboxamide]: the viability at 0.01 µM (10 nM, 72 hours) amounted to 40.4%. In addition, under “500 nM, 72 hours”, the viability at 0.5 µM amounted to 26%.

As for `COc1cccc2sc(C(=O)NCc3ccc4c(c3)CN(C3CCC(=O)NC3=O)C4=O)cc12` (stereo not shown) [Compound 74, N-((2-(2,6-Dioxopiperidin-3-yl)-1-oxoisoindolin-5-yl)methyl)-4-methoxybenzo[b]thiophene-2-carboxamide], under “10 nM, 72 hours”, the viability at 0.01 µM stood at 26.6%. Besides, for the setting “500 nM, 72 hours”, the viability at 0.5 µM worked out at 25.4%.

As for `Cc1c(C(=O)NCc2ccc3c(c2)CN(C2CCC(=O)NC2=O)C3=O)sc2ccc(Cl)cc12` (stereo not shown) [Compound 75, 5-Chloro-N-((2-(2,6-dioxopiperidin-3-yl)-1-oxoisoindolin-5-yl)methyl)-3-methylbenzo[b]thiophene-2-carboxamide], the viability at 0.01 µM (10 nM, 72 hours) is 32.1%. In addition, the viability at 0.5 µM (500 nM, 72 hours) amounted to 24.5%.

`Cc1c(C(=O)NCc2ccc3c(c2)CN(C2CCC(=O)NC2=O)C3=O)sc2ccccc12` (stereo not shown) [Compound 76, N-((2-(2,6-Dioxopiperidin-3-yl)-1-oxoisoindolin-5-yl)methyl)-3-methylbenzo[b]thiophene-2-carboxamide]: for the setting “10 nM, 72 hours”, the viability at 0.01 µM turned out to be 28%. Besides, the viability at 0.5 µM (500 nM, 72 hours) is 26.3%.

Turning to `Cc1c(C(=O)NCc2ccc3c(c2)CN(C2CCC(=O)NC2=O)C3=O)sc2cccc(Cl)c12` (stereo not shown) [Compound 77, 4-Chloro-N-((2-(2,6-dioxopiperidin-3-yl)-1-oxoisoindolin-5-yl)methyl)-3-methylbenzo[b]thiophene-2-carboxamide], the viability at 0.01 µM (10 nM, 72 hours) was determined as 24%. The viability at 0.5 µM (500 nM, 72 hours) stood at 24%.

Consider `Cc1c(C(=O)NCc2ccc3c(c2)CN(C2CCC(=O)NC2=O)C3=O)sc2c(Cl)cccc12` (stereo not shown) [Compound 78, 7-Chloro-N-((2-(2,6-dioxopiperidin-3-yl)-1-oxoisoindolin-5-yl)methyl)-3-methylbenzo[b]thiophene-2-carboxamide], for which the viability at 0.01 µM (10 nM, 72 hours) worked out at 15.7%. The viability at 0.5 µM (500 nM, 72 hours) was 15.6%.

For `Cc1c(C(=O)NCc2ccc3c(c2)CN(C2CCC(=O)NC2=O)C3=O)sc2cccc(F)c12` (stereo not shown) [Compound 79, N-((2-(2,6-Dioxopiperidin-3-yl)-1-oxoisoindolin-5-yl)methyl)-4-fluoro-3-methylbenzo[b]thiophene-2-carboxamide], the viability at 0.01 µM (10 nM, 72 hours) was 16.2%. Moreover, the viability at 0.5 µM (500 nM, 72 hours) turned out to be 15.2%.

As to `COc1cccc2cc(C(=O)NCc3ccc4c(c3)CN(C3CCC(=O)NC3=O)C4=O)oc12` (stereo not shown) [Compound 82, N-((2-(2,6-Dioxopiperidin-3-yl)-1-oxoisoindolin-5-yl)methyl)-7-methoxybenzofuran-2-carboxamide], the viability at 0.01 µM (10 nM, 72 hours) is 39%. The viability at 0.5 µM (500 nM, 72 hours) was determined as 17.6%.

`COc1ccc2cc(C(=O)NCc3ccc4c(c3)CN(C3CCC(=O)NC3=O)C4=O)oc2c1` (stereo not shown) [Compound 83, N-((2-(2,6-Dioxopiperidin-3-yl)-1-oxoisoindolin-5-yl)methyl)-6-methoxybenzofuran-2-carboxamide]: the viability at 0.01 µM (10 nM, 72 hours) worked out at 26.1%. For the setting “500 nM, 72 hours”, the viability at 0.5 µM was 15.9%.

Take `Cc1ccc2c(C)c(C(=O)NCc3ccc4c(c3)CN(C3CCC(=O)NC3=O)C4=O)oc2c1` (stereo not shown) [Compound 84, N-((2-(2,6-Dioxopiperidin-3-yl)-1-oxoisoindolin-5-yl)methyl)-3,6-dimethylbenzofuran-2-carboxamide]: the viability at 0.01 µM (10 nM, 72 hours) came to 28.9%. Besides, the viability at 0.5 µM (500 nM, 72 hours) was 18.2%.

For `Cc1c(C(=O)NCc2ccc3c(c2)CN(C2CCC(=O)NC2=O)C3=O)oc2ccc(Br)cc12` (stereo not shown) [Compound 85, 5-bromo-N-((2-(2,6-dioxopiperidin-3-yl)-1-oxoisoindolin-5-yl)methyl)-3-methylbenzofuran-2-carboxamide], under “10 nM, 72 hours”, the viability at 0.01 µM stood at 36.6%. Moreover, for the setting “500 nM, 72 hours”, the viability at 0.5 µM came out at 18.6%.

On to `O=C1CCC(N2Cc3cc(CNC(=O)c4cc5c(ccc6ccccc65)o4)ccc3C2=O)C(=O)N1` (stereo not shown) [Compound 86, N-((2-(2,6-Dioxopiperidin-3-yl)-1-oxoisoindolin-5-yl)methyl)naphtho[2,1-b]furan-2-carboxamide], for which the viability at 0.01 µM (10 nM, 72 hours) came to 14.7%. The viability at 0.5 µM (500 nM, 72 hours) amounted to 14.7%.
